Laboratory results from ChEMBL document CHEMBL1144266, “Synthesis and biological evaluation of 3-benzyl-1-methyl- and 1-methyl-3-phenyl-isothioureas as potential inhibitors of iNOS” (2005).

test system: J774.A1; experiment: Percent inhibition of nitrite release in lipopolysaccharide (LPS) treated J774.A1 macrophage cell lines at concentration of 1E-7M; type: functional, Mus musculus

Row | Compound | Inhibition [%]
1 | CN/C(=N/Cc1ccccc1)SC | -5.96
2 | CCCS/C(=N\C)NCc1ccccc1 | -31.36
3 | CCS/C(=N\C)NCc1ccccc1 | -2.41

test system: J774.A1; experiment: Percent inhibition of nitrite release in lipopolysaccharide (LPS) treated J774.A1 macrophage cell lines at concentration of 1E-6M; type: functional, Mus musculus

Row | Compound | Inhibition [%]
4 | C/N=C(/Nc1ccccc1Cl)SC(C)C | 3.21
5 | C/N=C(/Nc1ccccc1)SC(C)C | 13.21
6 | CCS/C(=N\C)Nc1cccc(F)c1 | 6.23
7 | CN/C(=N\c1ccc(Cl)cc1)SC | 2.9
8 | CN/C(=N\c1cccc(F)c1)SC | 5.23
9 | CCS/C(=N\C)Nc1ccc(Cl)cc1 | 0.5
10 | CCCS/C(=N\C)Nc1ccccc1C | 8.12
11 | C/N=C(/Nc1cccc(C)c1)SC(C)C | 19.89
12 | CN/C(=N\c1ccccc1Cl)SC | 2.9
13 | CCCS/C(=N\C)Nc1cccc(F)c1 | 7
14 | CN/C(=N\c1ccccc1F)SC | 1.56
15 | CCS/C(=N\C)Nc1ccc(F)cc1 | 5.98
16 | COC(=O)[C@@H](N)CCCNC(=N)N[N+](=O)[O-] [L-NAME] | 12.8
17 | CCS/C(=N\C)Nc1ccccc1 | 1.67
18 | CCS/C(=N\C)Nc1ccc(C)cc1 | 0
19 | C/N=C(/Nc1cccc(Cl)c1)SC(C)C | 7.09
20 | CCS/C(=N\C)Nc1cccc(Cl)c1 | 3.44
21 | CCCS/C(=N\C)Nc1ccccc1Cl | 1.1
22 | CCCS/C(=N\C)Nc1ccc(Cl)cc1 | 1.1
23 | CN/C(=N\c1ccccc1C)SC | 8.32
24 | CCS/C(=N\C)Nc1ccccc1C | 7.44
25 | CN/C(=N\c1cccc(Cl)c1)SC | 4.06

Row | Compound | Inhibition [%]
26 | CN/C(=N/Cc1ccccc1)SC | -9.54
27 | C/N=C(/Nc1cccc(F)c1)SC(C)C | 4.23
28 | C/N=C(/Nc1ccc(C)cc1)SC(C)C | 39.8
29 | C/N=C(/Nc1ccccc1F)SC(C)C | 2.76
30 | CCCS/C(=N\C)Nc1ccc(F)cc1 | 4
31 | CCS/C(=N\C)Nc1cccc(C)c1 | 6.79
32 | C/N=C(/Nc1ccccc1C)SC(C)C | 13.56
33 | CCS/C(=N\C)Nc1ccccc1F | 3.02
34 | CCCS/C(=N\C)Nc1cccc(C)c1 | 8.31
35 | CN/C(=N\c1ccc(C)cc1)SC | 4.67
36 | CN/C(=N\c1ccccc1)SC | 5.1
37 | CN/C(=N\c1cccc(C)c1)SC | 7.03
38 | CCCS/C(=N\C)Nc1ccccc1F | 4.15
39 | C/N=C(/Nc1ccc(F)cc1)SC(C)C | 4.76
40 | CCCS/C(=N\C)NCc1ccccc1 | -33.71
41 | CCCS/C(=N\C)Nc1cccc(Cl)c1 | 5.01
42 | CCCS/C(=N\C)Nc1ccc(C)cc1 | 1.54
43 | CCS/C(=N\C)Nc1ccccc1Cl | 2.9
44 | CCCS/C(=N\C)Nc1ccccc1 | 4.65
45 | CCS/C(=N\C)NCc1ccccc1 | -23.65
46 | C/N=C(/Nc1ccc(Cl)cc1)SC(C)C | 8.21

test system: J774.A1; experiment: Percent inhibition of nitrite release in lipopolysaccharide (LPS) treated J774.A1 macrophage cell lines at concentration of 1E-5M; type: functional, Mus musculus

Row | Compound | Inhibition [%]
47 | C/N=C(/Nc1ccccc1Cl)SC(C)C | 8.69
48 | C/N=C(/Nc1ccccc1)SC(C)C | 19.75
49 | CCS/C(=N\C)Nc1cccc(F)c1 | 10.21
50 | CN/C(=N\c1ccc(Cl)cc1)SC | 7.55
51 | CN/C(=N\c1cccc(F)c1)SC | 9.34
52 | CCS/C(=N\C)Nc1ccc(Cl)cc1 | 10.45
53 | CCCS/C(=N\C)Nc1ccccc1C | 11.45
54 | C/N=C(/Nc1cccc(C)c1)SC(C)C | 18.55
55 | CN/C(=N\c1ccccc1Cl)SC | 4.67
56 | CCCS/C(=N\C)Nc1cccc(F)c1 | 11.11
57 | CN/C(=N\c1ccccc1F)SC | 6.01
58 | CCS/C(=N\C)Nc1ccc(F)cc1 | 9.45
59 | COC(=O)[C@@H](N)CCCNC(=N)N[N+](=O)[O-] [L-NAME] | 20.37
60 | CCS/C(=N\C)Nc1ccccc1 | 2.67
61 | CCS/C(=N\C)Nc1ccc(C)cc1 | 0
62 | C/N=C(/Nc1cccc(Cl)c1)SC(C)C | 8
63 | CCS/C(=N\C)Nc1cccc(Cl)c1 | 11.56
64 | CCCS/C(=N\C)Nc1ccccc1Cl | 9.55
65 | CCCS/C(=N\C)Nc1ccc(Cl)cc1 | 5.08
66 | CN/C(=N\c1ccccc1C)SC | 17.45
67 | CCS/C(=N\C)Nc1ccccc1C | 15.33
68 | CN/C(=N\c1cccc(Cl)c1)SC | 12.33

Row | Compound | Inhibition [%]
69 | CN/C(=N/Cc1ccccc1)SC | -54.53
70 | C/N=C(/Nc1cccc(F)c1)SC(C)C | 10.04
71 | C/N=C(/Nc1ccc(C)cc1)SC(C)C | 28.11
72 | C/N=C(/Nc1ccccc1F)SC(C)C | 9.91
73 | CCCS/C(=N\C)Nc1ccc(F)cc1 | 10.67
74 | CCS/C(=N\C)Nc1cccc(C)c1 | 14.02
75 | C/N=C(/Nc1ccccc1C)SC(C)C | 18.78
76 | CCS/C(=N\C)Nc1ccccc1F | 9.76
77 | CCCS/C(=N\C)Nc1cccc(C)c1 | 12.09
78 | CN/C(=N\c1ccc(C)cc1)SC | 18.1
79 | CN/C(=N\c1ccccc1)SC | 8.65
80 | CN/C(=N\c1cccc(C)c1)SC | 15.34
81 | CCCS/C(=N\C)Nc1ccccc1F | 11.26
82 | C/N=C(/Nc1ccc(F)cc1)SC(C)C | 9.03
83 | CCCS/C(=N\C)NCc1ccccc1 | -39.58
84 | CCCS/C(=N\C)Nc1cccc(Cl)c1 | 9.34
85 | CCCS/C(=N\C)Nc1ccc(C)cc1 | 2.08
86 | CCS/C(=N\C)Nc1ccccc1Cl | 10.21
87 | CCCS/C(=N\C)Nc1ccccc1 | 15.7
88 | CCS/C(=N\C)NCc1ccccc1 | -26.84
89 | C/N=C(/Nc1ccc(Cl)cc1)SC(C)C | 7.09

test system: J774.A1; experiment: Percent inhibition of nitrite release in lipopolysaccharide (LPS) treated J774.A1 macrophage cell lines at concentration of 1E-3 M; type: functional, Mus musculus

Row | Compound | Inhibition [%]
90 | C/N=C(/Nc1ccccc1Cl)SC(C)C | 16.21
91 | C/N=C(/Nc1ccccc1)SC(C)C | 81.5
92 | CCS/C(=N\C)Nc1cccc(F)c1 | 59.45
93 | CN/C(=N\c1ccc(Cl)cc1)SC | 69.05
94 | CN/C(=N\c1cccc(F)c1)SC | 66.9
95 | CCS/C(=N\C)Nc1ccc(Cl)cc1 | 54.05
96 | CCCS/C(=N\C)Nc1ccccc1C | 81.01
97 | C/N=C(/Nc1cccc(C)c1)SC(C)C | 68.77
98 | CN/C(=N\c1ccccc1Cl)SC | 21.32
99 | CCCS/C(=N\C)Nc1cccc(F)c1 | 53.91
100 | CN/C(=N\c1ccccc1F)SC | 52.45
101 | CCS/C(=N\C)Nc1ccc(F)cc1 | 60.56
102 | COC(=O)[C@@H](N)CCCNC(=N)N[N+](=O)[O-] [L-NAME] | 69.49
103 | CCS/C(=N\C)Nc1ccccc1 | 76.76
104 | CCS/C(=N\C)Nc1ccc(C)cc1 | 56.82
105 | C/N=C(/Nc1cccc(Cl)c1)SC(C)C | 46.9
106 | CCS/C(=N\C)Nc1cccc(Cl)c1 | 41.56
107 | CCCS/C(=N\C)Nc1ccccc1Cl | 11.45
108 | CCCS/C(=N\C)Nc1ccc(Cl)cc1 | 50.04
109 | CN/C(=N\c1ccccc1C)SC | 75.1

Row | Compound | Inhibition [%]
110 | CCS/C(=N\C)Nc1ccccc1C | 65.21
111 | CN/C(=N\c1cccc(Cl)c1)SC | 45.38
112 | C/N=C(/Nc1cccc(F)c1)SC(C)C | 66.98
113 | C/N=C(/Nc1ccc(C)cc1)SC(C)C | 73.14
114 | C/N=C(/Nc1ccccc1F)SC(C)C | 67.71
115 | CCCS/C(=N\C)Nc1ccc(F)cc1 | 53.45
116 | CCS/C(=N\C)Nc1cccc(C)c1 | 81.03
117 | C/N=C(/Nc1ccccc1C)SC(C)C | 85.21
118 | CCS/C(=N\C)Nc1ccccc1F | 40.01
119 | CCCS/C(=N\C)Nc1cccc(C)c1 | 78.34
120 | CN/C(=N\c1ccc(C)cc1)SC | 67.8
121 | CN/C(=N\c1ccccc1)SC | 65
122 | CN/C(=N\c1cccc(C)c1)SC | 75
123 | CCCS/C(=N\C)Nc1ccccc1F | 65.61
124 | C/N=C(/Nc1ccc(F)cc1)SC(C)C | 61.45
125 | CCCS/C(=N\C)Nc1cccc(Cl)c1 | 58.45
126 | CCCS/C(=N\C)Nc1ccc(C)cc1 | 83.42
127 | CCS/C(=N\C)Nc1ccccc1Cl | 19.55
128 | CCCS/C(=N\C)Nc1ccccc1 | 65.78
129 | C/N=C(/Nc1ccc(Cl)cc1)SC(C)C | 48.09

test system: J774.A1; experiment: Percent inhibition of nitrite release in lipopolysaccharide (LPS) treated J774.A1 macrophage cell lines at concentration of 1E-8M; type: functional, Mus musculus

Row | Compound | Inhibition [%]
130 | CN/C(=N/Cc1ccccc1)SC | -2.65
131 | CCCS/C(=N\C)NCc1ccccc1 | -7.96
132 | CCS/C(=N\C)NCc1ccccc1 | -7.28
